Assay results as given in US3935309A, “Synergistic combinations of phosphonomycin and bacteriostatic agents” (Merck & Co., Inc., priority 1974, dated 1976).
Where “and” joins values, the source holds several entries; their conditions need not be identical. Equal entries are not always repeated.

Experiments:
[1] = tested on: Pseudomonas aeruginosa 3210; experiment: Combined antibiotic therapy of experimental infection in mice (Example 5); format: in vivo, mice infected with Pseudomonas aeruginosa 3210; conditions: 10 LD50
Excerpt: (§1) For example, using Escherichia coli 2017 as the infecting agent, sodium phosphonomycin was titrated alone and in the presence 5 and also in the presence of 0.5γtetracycline, while tetracycline was titrated alone and in the presence of 50γ, and also in the presence of 5γof sodium phosphonomycin. The two drugs were given by the subcutaneous route at separate sites on the ventral surface of the mouse. Such therapy was given only at the time of infection for the Escherichia coli and Pseudomonas aeruginosa tests but both at the time of infection and 6 hours later for all other tests. Infection was given intraperitoneally using broth suspensions of the test organism.

[2] = tested on: Streptococcus faecalis; experiment: MIC by two-fold serial broth dilution, alone and in combination (Example 1); format: cell-based; conditions: 2nd substance novobiocin; MIC/2 instead of ≤ MIC/4
[3] = tested on: bacterial cell wall; experiment: mode of action on bacteria; format: cell-based
Excerpt: In accordance with one embodiment of this invention, pathogenic bacteria are controlled by concomitantly contacting these pathogens with phosphonomycin and a bacteriostatic chemotherapeutic agent. The action of the phosphonomycin is to potentiate, augment or synergise the activity of the bacteriostatic agent. This potentiation of the bacteriostats is indeed unexpected since the bacteriostatic agents have an entirely different mode of action than phosphonomycin. […] Thus, phosphonomycin is indeed unique among antibiotics in that it is capable of potentiating the important bacteriostatic chemotherapeutic agents.

[4] = tested on: Escherichia coli 2017; experiment: Combined antibiotic therapy of Escherichia coli infection in mice (Example 5); format: in vivo, mice infected with Escherichia coli 2017
Excerpt: as §1

[5] = tested on: Klebsiella pneumoniae "B"; experiment: Combined antibiotic therapy of experimental infection in mice (Example 5); format: in vivo, mice infected with Klebsiella pneumoniae "B"; conditions: 7 LD50
Excerpt: as §1

[6] = tested on: Klebsiella pneumoniae; experiment: MIC by two-fold serial broth dilution, alone and in combination (Example 1); format: cell-based
Protocol: (§2) The MIC (minimum inhibitory concentration) of phosphonomycin and each of the other antibiotics by itself was determined before the combination synergy experiment was begun, as follows: 2 ml. of a double strength solution in sterile distilled water of the highest strength to be tested (usually 1000γ) was added to a tube of double strength nutrient broth (NB) and mixed thoroughly. Two-fold serial dilutions were then made by transferring 2 ml. to the next tube (1 × NB) and so on for approximately 12 tubes. The tubes were inoculated with one drop each of a 1:50 dilution of a culture adjusted to a Lumetron 60 reading in NB + 0.2% yeast extract so as to provide a concentration of cells of approximately 25,000/ml. The tubes were then incubated at 37°C. and examined for growth at 24, 48 and 72 hours.
(§3) In the combination experiment, the MIC value obtained as described above was used as approximately the midpoint of the range to be tested for each of the two antibiotics of the combination. In a manner similar to the above, two-fold dilutions of the first substance in the combination were made except that 1.8 ml. volumes were used and a 2.2 × strength solution of both the antibiotic and the NB were made. The second antibiotic of the combination was added to duplicate rows of serial dilutions of the first substance as follows: 0.2 ml. in NB of a [formula] and a [formula] respectively, of the second substance was added to each tube in a row of serial dilutions of the first antibiotic. The final concentration that resulted enabled the determination of the effect of both MIC/4 and MIC/8 of each substance in the presence of from approximately 32 MIC to [formula] of the other. Inocula were added as in the initial single MIC experiment.

[7] = tested on: Pseudomonas stutzeri; experiment: as above; format: cell-based
Protocol: as §2, §3

[8] = tested on: Staphylococcus aureus; experiment: as above; format: cell-based
Protocol: as §2, §3

[9] = tested on: Pseudomonas aeruginosa; experiment: as above; format: cell-based
Protocol: as §2, §3

[10] = tested on: Streptococcus faecalis; experiment: as above; format: cell-based
Protocol: as §2, §3

[11] = tested on: Proteus vulgaris; experiment: as above; format: cell-based
Protocol: as §2, §3

[12] = tested on: pathogenic bacteria; experiment: in vitro combination tests with various pathogens (general description); format: cell-based
Excerpt: Other experimental results have shown that novobiocin, chlortetracycline and sulfisoxazole are potentiated when combined with phosphonomycin and tested with various strains of pathogenic bacteria.

[13] = tested on: Streptococcus pyogenes 3009; experiment: Combined antibiotic therapy of experimental infection in mice (Example 5); format: in vivo, mice infected with Streptococcus pyogenes 3009; conditions: 6 LD50
Excerpt: as §1

[14] = phosphonomycin titrated, novobiocin constant 100
[15] = phosphonomycin titrated, novobiocin constant 1000
[16] = chloramphenicol repeat test, 7 LD50, phosphonomycin titrated, chloramphenicol constant 5
[17] = chloramphenicol repeat test, 7 LD50, phosphonomycin titrated, chloramphenicol constant 50
[18] = chloramphenicol test 1, 9 LD50, phosphonomycin titrated, chloramphenicol constant 3
[19] = chloramphenicol test 1, 9 LD50, phosphonomycin titrated, chloramphenicol constant 30
[20] = tetracycline repeat test, 7 LD50, phosphonomycin titrated, tetracycline constant 1
[21] = tetracycline repeat test, 7 LD50, phosphonomycin titrated, tetracycline constant 10
[22] = tetracycline test 1, 9 LD50, alone
[23] = tetracycline test 1, 9 LD50, phosphonomycin titrated, tetracycline constant 0.5
[24] = tetracycline test 1, 9 LD50, phosphonomycin titrated, tetracycline constant 5
[25] = alone, therapy at 0 and 6 hours, phosphonomycin as sodium salt

C[C@@H]1O[C@@H]1P(=O)(O)O [Phosphonomycin, (-) (cis-1,2-epoxypropyl)phosphonic acid]
% ED50 ([1]; alone): 100%
s.c. ED50 ([1]; alone, therapy at 0 hour only, phosphonomycin as sodium salt): 1420 µg
% ED50 [1, 14]: 88%
s.c. ED50 [1, 14]: 1250 µg
% ED50 [1, 15]: 195%
s.c. ED50 [1, 15]: 2760 µg
Phosphonomycin MIC in presence of 2nd substance [2]: 24 µg/mL
mode of action [3]: bactericidal in action
spheroplasts ([3]; certain bacterial strains exposed to the antibiotic): detection of spheroplasts
% ED50 ([4]; chloramphenicol repeat test, 7 LD50, alone): 100%
s.c. ED50 ([4]; chloramphenicol repeat test, 7 LD50, alone, single dose at 0 hour, phosphonomycin as sodium salt): 276 µg
% ED50 ([4]; chloramphenicol repeat test, 7 LD50, chloramphenicol titrated, phosphonomycin constant 5): 2%
% ED50 ([4]; chloramphenicol repeat test, 7 LD50, chloramphenicol titrated, phosphonomycin constant 50): 19%
% ED50 [4, 16]: 33%
s.c. ED50 [4, 16]: 92 µg
% ED50 [4, 17]: 9%
s.c. ED50 [4, 17]: 26 µg
% ED50 ([4]; chloramphenicol test 1, 9 LD50, alone): 100%
s.c. ED50 ([4]; chloramphenicol test 1, 9 LD50, alone, single dose at 0 hour, phosphonomycin as sodium salt): 905 µg
% ED50 ([4]; chloramphenicol test 1, 9 LD50, chloramphenicol titrated, phosphonomycin constant 10): 1%
% ED50 ([4]; chloramphenicol test 1, 9 LD50, chloramphenicol titrated, phosphonomycin constant 100): 11%
% ED50 [4, 18]: 100%
s.c. ED50 [4, 18]: 905 µg
% ED50 [4, 19]: 55%
s.c. ED50 [4, 19]: 500 µg
% ED50 ([4]; tetracycline repeat test, 7 LD50, alone): 100%
s.c. ED50 ([4]; tetracycline repeat test, 7 LD50, alone, single dose at 0 hour, phosphonomycin as sodium salt): 350 µg
% ED50 [4, 20]: 108%
s.c. ED50 [4, 20]: 380 µg
% ED50 [4, 21]: 111%
s.c. ED50 [4, 21]: 390 µg
% ED50 ([4]; tetracycline repeat test, 7 LD50, tetracycline titrated, phosphonomycin constant 0.5): 2%
% ED50 ([4]; tetracycline repeat test, 7 LD50, tetracycline titrated, phosphonomycin constant 50): 14%
% ED50 [4, 22]: 100%
% ED50, Combined % [4, 22]: 100%
s.c. ED50 ([4]; tetracycline test 1, 9 LD50, alone, single dose at 0 hour, phosphonomycin as sodium salt): 1000 µg
% ED50 [4, 23]: 100%
s.c. ED50 [4, 23]: 1000 µg
% ED50 [4, 24]: 43%
s.c. ED50 [4, 24]: 427 µg
% ED50 ([4]; tetracycline test 1, 9 LD50, tetracycline titrated, phosphonomycin constant 5): .5%
% ED50 ([4]; tetracycline test 1, 9 LD50, tetracycline titrated, phosphonomycin constant 50): 5%
% ED50 ([5]; alone): 100%
s.c. ED50 [5, 25]: 2130 µg
% ED50 [5, 14]: 52%
s.c. ED50 [5, 14]: 1110 µg
% ED50 [5, 15]: 14%
s.c. ED50 [5, 15]: 298 µg
Phosphonomycin MIC in presence of ≤ MIC/4 of 2nd substance ([6]; 2nd substance novobiocin): 5.8
MIC ([6]; Klebsiella pneumoniae, alone, read-out: Phosphonomycin MIC): 750 µg/mL
Phosphonomycin MIC in presence of ≤ MIC/4 of 2nd substance ([7]; 2nd substance novobiocin): 16
MIC ([7]; Stutzerimonas stutzeri, read-out: Phosphonomycin MIC): > 220 µg/mL
Phosphonomycin MIC in presence of ≤ MIC/4 of 2nd substance ([8]; 2nd substance erythromycin): 24
Phosphonomycin MIC in presence of ≤ MIC/4 of 2nd substance ([8]; 2nd substance novobiocin): 48
Phosphonomycin MIC in presence of ≤ MIC/4 of 2nd substance ([9]; 2nd substance erythromycin): 12
Phosphonomycin MIC in presence of ≤ MIC/4 of 2nd substance ([9]; 2nd substance novobiocin): 93.6
Phosphonomycin MIC in presence of ≤ MIC/4 of 2nd substance ([10]; 2nd substance chlortetracycline): 48
Phosphonomycin MIC in presence of ≤ MIC/4 of 2nd substance ([10]; 2nd substance erythromycin): 192
MIC ([10]; Enterococcus faecalis, alone, read-out: Phosphonomycin MIC): 93.6 µg/mL
Phosphonomycin MIC ([10]; alone, in µg/mL): 96 and 48
Phosphonomycin MIC in presence of 2nd substance ([11]; 2nd substance chlortetracycline, MIC/2 instead of ≤ MIC/4): 24 µg/mL
Phosphonomycin MIC in presence of ≤ MIC/4 of 2nd substance ([11]; 2nd substance erythromycin): 96
Phosphonomycin MIC in presence of ≤ MIC/4 of 2nd substance ([11]; 2nd substance novobiocin): 6.8
tests in which phosphonomycin potentiated the effect of chloramphenicol ([12]; almost 200 pathogenic bacteria, about 15,000 individual tests): 88%
antagonism ([12]; between phosphonomycin and each of chloramphenicol and erythromycin): no antagonism
antagonism ([12]; various tests with human pathogens): does not exhibit any antagonism
synergism ([12]; with chloramphenicol, erythromycin, tetracyclines, novobiocin and sulfisoxazole, inhibition at one quarter or less of MIC of each): acts synergistically
% ED50 ([13]; alone): 100%
% ED50, Combined % ([13]; alone): 100%
s.c. ED50 [13, 25]: 1400 µg
% ED50 ([13]; tetracycline titrated, phosphonomycin constant 500): 64%
% ED50 ([13]; tetracycline titrated, phosphonomycin constant 1000): 71%
